{
  "source": "patent US6443892B1",
  "about": "“Sweat collecting device and methods for use and detection of tampering” (The United States of America as represented by the …, priority 2000, dated 2002)",
  "origin": "cited, not measured here",
  "key": {"[1]": {"conditions": "basic media"}, "[2]": {"conditions": "hydrophilic dye; hydration of inner pad not reported"}},
  "data": [
    {"smiles": "CC(=O)Oc1ccc2c3c1O[C@H]1[C@@H](OC(C)=O)C=C[C@H]4[C@@H](C2)N(C)CC[C@@]341", "note": "[heroin]", "values": [
      {"measurement": "earliest collection time with detectable concentrations after drugs placed on outside of membrane", "setting": "[1]", "value": "approximately 30 seconds"}
    ]},
    {"smiles": "CN[C@@H](C)Cc1ccccc1", "note": "[methamphetamine]", "values": [
      {"measurement": "earliest collection time with detectable concentrations after drugs placed on outside of membrane", "setting": "[1]", "value": "approximately 30 seconds"}
    ]},
    {"smiles": "CCN(CC)c1ccc2c(-c3ccccc3C(=O)O)c3ccc(=[N+](CC)CC)cc-3oc2c1.[Cl-]", "note": "[rhodamine B]", "values": [
      {"measurement": "CFWO through membrane", "setting": "[2]", "value": "No CFWO was observed"}
    ]}
  ]
}
